Assay type in all cases: cell-based
Test [1] deals with T1, Casein kinase 2 (Mus musculus) (UniProt Q60737+P67871+O54833+Q8CH19). The experiment in a line: Inhibition of CK2 in mouse C2C12 cells assessed as reduction in CK2 substrates phosphorylation at 1 to 4 uM by Western blot analysis. The settings on record: dose 1-4 µM.
Test [2] deals with Transcriptional regulator ATRX (Mus musculus) (UniProt Q61687). Description: Inhibition of ATRX in mouse C2C12 cells assessed as reduction in phospho-sites occupancy at 4 uM after 5 hrs by SILAC based LC-MS/MS analysis relative to control.
Test [3] deals with Lamina-associated polypeptide 2, isoforms beta/delta/epsilon/gamma (Mus musculus) (UniProt Q61029). Description: Inhibition of LAP2B epsilon in mouse C2C12 cells assessed as reduction in phospho-sites occupancy at 4 uM after 5 hrs by SILAC based LC-MS/MS analysis relative to control.
In test [4] the target is Serine/arginine repetitive matrix protein 1 (Mus musculus) (UniProt Q52KI8). The experiment in a line: Inhibition of Srrm1 in mouse C2C12 cells assessed as reduction in phospho-sites occupancy at 4 uM after 5 hrs by SILAC based LC-MS/MS analysis relative to control.
Test [5] concerns the target Centrosomal protein of 170 kDa (Mus musculus) (UniProt Q6A065). The experiment in a line: Inhibition of Cep170 in mouse C2C12 cells assessed as reduction in phospho-sites occupancy at 4 uM after 5 hrs by SILAC based LC-MS/MS analysis relative to control.
Test [6] addresses T1, Casein kinase 2 (Mus musculus). Description: Inhibition of CK2 in mouse C2C12 cells assessed as reduction in Akt phosphorylation at S129 residues at 1 to 4 uM by Western blot analysis. Particulars: dose 1-4 µM.
Test [7] addresses Fermitin family homolog 2 (Mus musculus) (UniProt Q8CIB5). Description: Inhibition of Fermt2 in mouse C2C12 cells assessed as reduction in phospho-sites occupancy at 4 uM after 5 hrs by SILAC based LC-MS/MS analysis relative to control.
Test [8] deals with Nucleolar RNA helicase 2 (Mus musculus) (UniProt Q9JIK5). Description: Inhibition of Ddx21 in mouse C2C12 cells assessed as reduction in phospho-sites occupancy at 4 uM after 5 hrs by SILAC based LC-MS/MS analysis relative to control.
Test [9] addresses T1, Casein kinase 2 (Mus musculus). Description: Inhibition of CK2 in mouse C2C12 cells assessed as reduction in CDC37 phosphorylation at S13 residues at 1 to 4 uM by Western blot analysis. Particulars: dose 1-4 µM.
Test [10] deals with 1-phosphatidylinositol 4,5-bisphosphate phosphodiesterase delta-3 (Mus musculus) (UniProt Q8K2J0). Description: Inhibition of Plcd3 in mouse C2C12 cells assessed as reduction in phospho-sites occupancy at 4 uM after 5 hrs by SILAC based LC-MS/MS analysis relative to control.
In test [11] the target is DNA replication licensing factor MCM2 (Mus musculus) (UniProt P97310). Description: Inhibition of Mcm2 in mouse C2C12 cells assessed as reduction in phospho-sites occupancy at 4 uM after 5 hrs by SILAC based LC-MS/MS analysis relative to control.
Test [12] has as its target Kinectin (Mus musculus) (UniProt Q61595). The experiment in a line: Inhibition of Ktn1 in mouse C2C12 cells assessed as reduction in phospho-sites occupancy at 4 uM after 5 hrs by SILAC based LC-MS/MS analysis relative to control.
Test [13] has as its target Cyclin-dependent kinase 4 (Mus musculus) (UniProt P30285). Description: Inhibition of Cdk4 in mouse C2C12 cells assessed as reduction in phospho-sites occupancy at 4 uM after 5 hrs by SILAC based LC-MS/MS analysis relative to control.
For test [14], the target named is Protein transport protein Sec31A (Mus musculus) (UniProt Q3UPL0). Description: Inhibition of Sec31a in mouse C2C12 cells assessed as reduction in phospho-sites occupancy at 4 uM after 5 hrs by SILAC based LC-MS/MS analysis relative to control.
Test [15] deals with EH domain-containing protein 2 (Mus musculus) (UniProt Q8BH64). The experiment in a line: Inhibition of Ehd2 in mouse C2C12 cells assessed as reduction in phospho-sites occupancy at 4 uM after 5 hrs by SILAC based LC-MS/MS analysis relative to control.
The target in test [16] is Autophagy-related protein 9A (Mus musculus) (UniProt Q68FE2). Description: Inhibition of Atg9a in mouse C2C12 cells assessed as reduction in phospho-sites occupancy at 4 uM after 5 hrs by SILAC based LC-MS/MS analysis relative to control.
The target in test [17] is WASH complex subunit 2 (Mus musculus) (UniProt Q6PGL7). Description: Inhibition of Washc2 in mouse C2C12 cells assessed as reduction in phospho-sites occupancy at 4 uM after 5 hrs by SILAC based LC-MS/MS analysis relative to control.
The target of test [18] is Pleckstrin homology-like domain family B member 1 (Mus musculus) (UniProt Q6PDH0). The experiment in a line: Inhibition of Phldb1 in mouse C2C12 cells assessed as reduction in phospho-sites occupancy at 4 uM after 5 hrs by SILAC based LC-MS/MS analysis relative to control.
Test [19] addresses E3 ubiquitin-protein ligase NEDD4 (Mus musculus) (UniProt P46935). Description: Inhibition of Nedd4 in mouse C2C12 cells assessed as reduction in phospho-sites occupancy at 4 uM after 5 hrs by SILAC based LC-MS/MS analysis relative to control.
The target of test [20] is Rho GTPase-activating protein 35 (Mus musculus) (UniProt Q91YM2). Description: Inhibition of Arhgap35 in mouse C2C12 cells assessed as reduction in phospho-sites occupancy at 4 uM after 5 hrs by SILAC based LC-MS/MS analysis relative to control.
For test [21], the target named is tRNA (guanine(26)-N(2))-dimethyltransferase (Mus musculus) (UniProt Q3TX08). Description: Inhibition of Trmt1 in mouse C2C12 cells assessed as reduction in phospho-sites occupancy at 4 uM after 5 hrs by SILAC based LC-MS/MS analysis relative to control.
Test [22] addresses Desmoyokin (Mus musculus) (UniProt Q61484). Description: Inhibition of AHNAK in mouse C2C12 cells assessed as reduction in phospho-sites occupancy at 4 uM after 5 hrs by SILAC based LC-MS/MS analysis relative to control.
Test [23] addresses La-related protein 1 (Mus musculus) (UniProt Q6ZQ58). Description: Inhibition of Larp1 in mouse C2C12 cells assessed as reduction in phospho-sites occupancy at 4 uM after 5 hrs by SILAC based LC-MS/MS analysis relative to control.
Test [24] has as its target Dihydropyrimidinase-related protein 3 (Mus musculus) (UniProt Q62188). The experiment in a line: Inhibition of Dihydropyrimidinase-related protein 3 in mouse C2C12 cells assessed as reduction in phospho-sites occupancy at 4 uM after 5 hrs by SILAC based LC-MS/MS analysis relative to control.

Activity calls are given as the source filed them. The rule behind the calls is not given here.

The record followed here is ChEMBL document CHEMBL4813950, “Comparing the efficacy and selectivity of Ck2 inhibitors. A phosphoproteomics approach” (Eur J Med Chem, 2021).

In the case of `O=C(O)c1ccc2c(c1)nc(Nc1cccc(Cl)c1)c1ccncc12`, the inhibition result in test [1], in test [6] and in [9] was “Active” each time. For the same molecule, the fold change (FC) in test [2] stood at 2.22; in test [3], 1.82; in test [4] it was 1.7; in test [5] it was 1.56; in [7], 2.53; in test [8] it was 1.85. Also, the fold change (FC) in test [10] turned out to be 2.53; in test [11] it was 1.83; in [12] it was 1.54; in test [13] it was 2.6; in test [14] it was 2.28; in test [15], 1.65. In addition, the fold change (FC) in [16] was found to be 1.5; in [17], 3.41; in test [18], 2.12; in test [19] it was 3.66; in test [20], 1.95; in [21], 1.54. Moreover, the fold change (FC) in test [22] was determined as 1.54; in test [23] it was 1.84; in test [24], 2.57.
